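Cultured in 96-well plates, cells were exposed to test compound for 48 hours across five concentrations. GI50 marks 50% less growth.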 The source made the active and inactive calls. No stated cut-off is given here; in the data, active = GI50 up to about 1.1 µM and inactive = higher.
Key:
Test in all cases: inhibition of tumour cell growth, NCI panel, 48 h
KM12 = tested on: KM12
HOP-92 = tested on: HOP-92
LOX IMVI = tested on: LOX IMVI
SF-539 = tested on: SF-539
SW-620 = tested on: SW-620
CCRF-CEM = tested on: CCRF-CEM
MOLT-4 = tested on: MOLT-4
HCT-15 = tested on: HCT-15
NCI-H23 = tested on: NCI-H23
EKVX = tested on: EKVX
OVCAR-5 = tested on: OVCAR-5
HOP-62 = tested on: HOP-62
HCT-116 = tested on: HCT-116
SF-295 = tested on: SF-295
A498 = tested on: A498
OVCAR-3 = tested on: OVCAR-3
T47D = tested on: T47D
UACC-257 = tested on: UACC-257
SK-MEL-5 = tested on: SK-MEL-5
SK-MEL-28 = tested on: SK-MEL-28

CN(C)CCNc1ccc(NCCN(C)C)c2c1C(=O)c1ncsc1C2=O
GI50 (KM12): 11.4 µM (inactive)
GI50 (HOP-92): 15.2 µM (inactive)
GI50 (LOX IMVI): 8.53 µM (inactive)
GI50 (SF-539): 12.9 µM (inactive)
GI50 (SW-620): 9.82 µM (inactive)
GI50 (CCRF-CEM): 3.08 µM (inactive)
GI50 (MOLT-4): 1.94 µM (inactive)
GI50 (HCT-15): 11.4 µM
GI50 (NCI-H23): 15.2 µM (inactive)
GI50 (EKVX): 12.3 µM (inactive)
GI50 (OVCAR-5): 21.8 µM (inactive)
GI50 (HOP-62): 13.2 µM (inactive)
GI50 (HCT-116): 8.18 µM (inactive)
GI50 (SF-295): 12.8 µM (inactive)
GI50 (A498): 14.1 µM (inactive)
GI50 (OVCAR-3): 4.65 µM (inactive)
GI50 (T47D): > 100 µM (inactive)
GI50 (UACC-257): 18.5 µM (inactive)
GI50 (SK-MEL-5): 15.8 µM (inactive)
GI50 (SK-MEL-28): 15.3 µM (inactive)

COc1cc2oc(=O)cc(C)c2cc1[N+](=O)[O-]
GI50 (KM12): 25.7 µM (inactive)
GI50 (HOP-92): 17.1 µM (inactive)
GI50 (LOX IMVI): 12.2 µM (inactive)
GI50 (SF-539): 23.8 µM (inactive)
GI50 (SW-620): 23 µM (inactive)
GI50 (CCRF-CEM): 17.8 µM (inactive)
GI50 (MOLT-4): 13.7 µM (inactive)
GI50 (HCT-15): 17.7 µM
GI50 (NCI-H23): 21.3 µM (inactive)
GI50 (EKVX): > 59.4 µM (inactive)
GI50 (OVCAR-5): 28.1 µM (inactive)
GI50 (HOP-62): 41.6 µM (inactive)
GI50 (HCT-116): 15.3 µM (inactive)
GI50 (SF-295): 51.4 µM (inactive)
GI50 (A498): 28.4 µM (inactive)
GI50 (OVCAR-3): 25.4 µM (inactive)
GI50 (T47D): 20.7 µM (inactive)
GI50 (UACC-257): 16.3 µM (inactive)
GI50 (SK-MEL-5): 27.3 µM (inactive)
GI50 (SK-MEL-28): 22.6 µM (inactive)

Nc1c(Cl)ncnc1N[C@@H]1C[C@H]1CO
GI50 (KM12): > 100 µM (inactive)
GI50 (HOP-92): > 100 µM (inactive)
GI50 (LOX IMVI): > 100 µM (inactive)
GI50 (SF-539): > 100 µM (inactive)
GI50 (SW-620): > 100 µM (inactive)
GI50 (CCRF-CEM): > 100 µM (inactive)
GI50 (MOLT-4): > 100 µM (inactive)
GI50 (HCT-15): > 100 µM
GI50 (NCI-H23): > 100 µM (inactive)
GI50 (EKVX): > 100 µM (inactive)
GI50 (OVCAR-5): > 100 µM (inactive)
GI50 (HOP-62): > 100 µM (inactive)
GI50 (HCT-116): > 100 µM (inactive)
GI50 (SF-295): > 100 µM (inactive)
GI50 (A498): > 100 µM (inactive)
GI50 (OVCAR-3): > 100 µM (inactive)
GI50 (T47D): > 100 µM (inactive)
GI50 (UACC-257): > 100 µM (inactive)
GI50 (SK-MEL-5): > 100 µM (inactive)
GI50 (SK-MEL-28): > 100 µM (inactive)

O=C(O)C12C3C4(C(=O)O)C1C1(C(=O)O)C2C3(C(=O)O)C41 (stereo not given)
GI50 (KM12): > 100 µM (inactive)
GI50 (HOP-92): > 100 µM (inactive)
GI50 (LOX IMVI): > 100 µM (inactive)
GI50 (SF-539): > 100 µM (inactive)
GI50 (SW-620): > 100 µM (inactive)
GI50 (CCRF-CEM): > 100 µM (inactive)
GI50 (MOLT-4): > 100 µM (inactive)
GI50 (HCT-15): > 100 µM
GI50 (NCI-H23): > 100 µM (inactive)
GI50 (EKVX): > 100 µM (inactive)
GI50 (OVCAR-5): > 100 µM (inactive)
GI50 (HOP-62): > 100 µM (inactive)
GI50 (HCT-116): > 100 µM (inactive)
GI50 (SF-295): 4.4 µM (inactive)
GI50 (A498): > 100 µM (inactive)
GI50 (OVCAR-3): > 100 µM (inactive)
GI50 (T47D): > 100 µM (inactive)
GI50 (UACC-257): > 100 µM (inactive)
GI50 (SK-MEL-5): > 100 µM (inactive)
GI50 (SK-MEL-28): > 100 µM (inactive)

OC(Cc1ccc2ccccc2n1)(C(F)(F)Cl)C(F)(F)Cl
GI50 (KM12): > 10 µM (inactive)
GI50 (HOP-92): > 10 µM (inactive)
GI50 (LOX IMVI): > 10 µM (inactive)
GI50 (SF-539): > 10 µM (inactive)
GI50 (SW-620): > 10 µM (inactive)
GI50 (CCRF-CEM): > 10 µM (inactive)
GI50 (MOLT-4): > 10 µM (inactive)
GI50 (HCT-15): > 10 µM
GI50 (NCI-H23): > 10 µM (inactive)
GI50 (EKVX): > 10 µM (inactive)
GI50 (OVCAR-5): > 10 µM (inactive)
GI50 (HOP-62): > 10 µM (inactive)
GI50 (HCT-116): > 10 µM (inactive)
GI50 (SF-295): > 10 µM (inactive)
GI50 (A498): > 10 µM (inactive)
GI50 (OVCAR-3): > 10 µM (inactive)
GI50 (T47D): > 10 µM (inactive)
GI50 (UACC-257): > 10 µM (inactive)
GI50 (SK-MEL-5): > 10 µM (inactive)
GI50 (SK-MEL-28): > 10 µM (inactive)

CCOc1cc(/C=N\N(C)C)cc(/C=N\N(C)C)c1O
GI50 (KM12): > 100 µM (inactive)
GI50 (HOP-92): 7.66 µM (inactive)
GI50 (LOX IMVI): 30.5 µM (inactive)
GI50 (SF-539): 20.6 µM (inactive)
GI50 (SW-620): 53.3 µM (inactive)
GI50 (CCRF-CEM): 44.7 µM (inactive)
GI50 (MOLT-4): 61 µM (inactive)
GI50 (HCT-15): 35.2 µM
GI50 (NCI-H23): > 100 µM (inactive)
GI50 (EKVX): 71.6 µM (inactive)
GI50 (OVCAR-5): 48.2 µM (inactive)
GI50 (HOP-62): 50.8 µM (inactive)
GI50 (HCT-116): 90.6 µM (inactive)
GI50 (SF-295): 41.3 µM (inactive)
GI50 (A498): 55.5 µM (inactive)
GI50 (OVCAR-3): 31.7 µM (inactive)
GI50 (T47D): 11.7 µM (inactive)
GI50 (UACC-257): 36 µM (inactive)
GI50 (SK-MEL-5): 22.1 µM (inactive)
GI50 (SK-MEL-28): 35.4 µM (inactive)

COc1c(O)cc2c(c1O)C(=O)C1=C(CCCC1)C2=O
GI50 (KM12): 20.2 µM (inactive)
GI50 (HOP-92): 21.7 µM (inactive)
GI50 (LOX IMVI): 14.7 µM (inactive)
GI50 (SF-539): 15.6 µM (inactive)
GI50 (SW-620): 27.4 µM (inactive)
GI50 (CCRF-CEM): 1.87 µM (inactive)
GI50 (MOLT-4): 4.8 µM (inactive)
GI50 (HCT-15): 26.1 µM
GI50 (NCI-H23): 15.5 µM (inactive)
GI50 (EKVX): 22.6 µM (inactive)
GI50 (OVCAR-5): 38.4 µM (inactive)
GI50 (HOP-62): 33.4 µM (inactive)
GI50 (HCT-116): 12.5 µM (inactive)
GI50 (SF-295): 25.2 µM (inactive)
GI50 (A498): 17.9 µM (inactive)
GI50 (OVCAR-3): 20.3 µM (inactive)
GI50 (T47D): 17.9 µM (inactive)
GI50 (UACC-257): 34 µM (inactive)
GI50 (SK-MEL-5): 23.9 µM (inactive)
GI50 (SK-MEL-28): 24 µM (inactive)

— ChEMBL document CHEMBL1201862, “PubChem BioAssay data set” (2004)
